From US7345065B2, “Methods and compositions for alleviating pain” (Allergan, Inc., priority 2002, dated 2008)

Tests used:
[1] = test system: α-2B heterozygous (−/+) and homozygous (−/−) knockout mice; test: Sulprostone sensitized pain (allodynia), α-2B knockout mice; format: in vivo, mouse; settings: intraperitoneal; heterozygous and homozygous α-2B knockout; clonidine 500 ug/kg, Compound 3 100 ug/kg
Chung model rats = test: Chung rat nerve ligation model, tactile allodynia reversal (Von Frey); format: in vivo
Method: The Chung rat nerve ligation model is a well accepted model of peripheral neuropathic pain. In the Chung model, partial ligation of left spinal nerves L-5 and L-6 produces a long-lasting hypersensitivity to light touch on the affected left foot. The hypersensitivity is similar to pain experienced by humans with the neuropathic condition of causalgia (Kim and Chung, Pain 50:355-363 (1992)).
Chung rat surgeries of about 20 minutes duration were performed essentially as follows. Male Sprague-Dawley rats weighing 100 to 120 grams were anesthetized with isofluorane. After shaving and preparing the surgical site with betadine, an incision was made from thoracic vertebra XIII down toward the sacrum, and muscle separated from spinal vertebra (left side) at the L4-S2 levels. The L6 vertebra were located, and the transverse process carefully removed with a small rongeur to visually identify the L4-L6 spinal nerves. L5 and L6 spinal nerves were isolated and tightly ligated with 6-0 silk thread; the wound was sutured after complete hemostasis was confirmed. A small amount of antibiotic ointment was applied to the incised area before transferring the animals to a plastic recovery cage under a regulated heat-temperature lamp. Animals were not treated with any topical or local anesthetics post-operatively.
Assessment of pain in Chung model rats was performed by applying a light tactile stimulus (Von Frey hair) to the affected surgical paw as follows. A 50% pain threshold was established by applying the Von Frey hair in an up-and-down manner to the plantar surface of the surgical paw with just enough force to bend them. A positive response was recorded if the paw was withdrawn sharply. The 50% paw withdrawal threshold was determined using the method of Dixon et al., Ann. Rev. Pharmacol. Toxicol. 20:441-462 (1980). The post-drug threshold was compared to the pre-drug threshold, and the precent reversal of tactile sensitivity calculated based on a normal threshold of 15.1 grams. The results were expressed as % allodynia reversal, reflecting the percentage reversal of pain threshold relative to a normal rat (100%).
Chung surgeries were performed, and pain assessed as described above. Drugs administered via osmotic minipump were delivered as follows. ALZET (Cupertino, Calif.) minipumps (Model #1007D) were implanted subcutaneously on the rats' back between the shoulder blades. Pumps were filled with test solution prior to surgery, which was performed with aseptic procedures and sterilized surgical instruments. After anesthetization with isoflorane and midline incision between the shoulder blades through the muscle, a subcutaneous pocket was exposed. The minipump was inserted into the exposed pocket, before stapling the wounds closed and allowing animals to recover under a warming light.
ALZET osmotic minipumps (model 1007D) hold a total volume of 100 μl and delivered drug at the set rat of 0.5 μl per hour the indicated time period. Drugs were administered at the indicated rate, typically 100 μg/hr/kg, dissolved in 50% DMSO, with the concentration of drug in the pump varied depending on animal weight. […]

[2] = Plasma concentration by LC-MS/MS during and after minipump dosing; format: in vivo, rat; settings: 0.1 mg/kg/hour minipump for seven days
Method: To determine whether the persistent reversal of allodynia was due to the continued presence of drug in the animals, rats were treated for seven days using a subcutaneous osmotic minipump with 0.1 mg/kg/hour Compound 8. Plasma concentrations of Compound 8 were sampled on days 3, 6, 8, 10 and 14 following pump insertion and determined by liquid chromatography-mass spectrometry/mass spectrometry (LC-MS/MS).

Bennett model rats = test: Bennett partial sciatic nerve ligation model, cold allodynia; format: in vivo, rat; settings: osmotic minipump 0.1 mg/hr/kg for four days; during treatment and more than three weeks following pump removal
Method: The α-2B/C selective agonist Compound 8 was tested in a second rat nerve injury model of neuropathic pain, the Bennett partial sciatic nerve ligation model. This rat model produces a peripheral mononeuropathy with disorders of pain sensation similar to those seen in man (Bennett and Xie, Pain 33:87-107 (1988)). In the Bennett model, nerve injury is created by loosely tying constrictive ligatures around the sciatic nerve, causing degeneration of nerve distal to the constriction. Allodynia and hyperalgesia are produced by the constriction injury in addition to spontaneous pain (Bennett and Xie, supra, 1988). In particular, cold allodynia, the sensation of pain from cold stimuli, is one manifestation of altered pain sensation: Bennett model animals frequently lift the paw of the surgical limb off the cold surface, in contrast to control animals.
Bennett surgeries of about 20 minute duration were performed as follows. […]
Chronic drug administration was achieved via an osmotic minipump, which was implanted subcutaneously on the back of the rat one week after the Bennett surgery as described above. […] To assess response to thermal stimuli, rats were placed under a clear plastic chamber (18 cm×29 cm×12.5 cm) on a chilled (0-4° C.) metal floor, which is not noxious to a normal animal, and the time that the surgical paw was raised off of the cold floor recorded over a 5 minute period. […]

[3] = test system: Sprague Dawley rats, normal and sensitized; test: Rat model of irritable bowel syndrome (chronic visceral hypersensitivity), EMG response to colorectal distension; format: in vivo
Description: A well-accepted model of chronic visceral hypersensitivity is described in Al-Chaer et al., Gastroenterology 119:1276-85 (2000). In brief, colons of neonatal male Sprague Dawley rats were sensitized by repeated inflation of a colonic balloon on postnatal days 8 to 21, with colonic balloons inflated to pressures ranging from 20-80 mm Hg. Three months later, the abdominal withdrawal reflex (AWR) response of the adult rats to graded colorectal distension (CRD) was quantified by electromyography (EMG) recording from the abdominal wall muscle. […] Each level of CRD was administered for 20 seconds every four minutes and repeated for a total of five times.
Groups of 8-10 normal and sensitized adult Sprague Dawley rats (approximately 3 months old) were implanted with subcutaneous minipumps to deliver either 50% DMSO or Compound 8 in 50% DMSO at a dose of 100 ug/kg/hr over a period of 7 days. The abdominal withdrawal reflex to a graded series of colorectal distensions (20, 40, 60, 80 mm Hg) was measured by abdominal EMG recording prior to pump implantation, on days 2 and 5 of the subcutaneous infusion, and 2 days, 1 week, 2 weeks, and 4 weeks after the pumps were removed.

rat α-2B (RNG gene) = biological target: T1, rat α-2B (RNG gene) (Rattus norvegicus, UniProt P19328); test: RSAT assay, α-2B receptor; format: cell-based
T1 construct: expressed in transfected cells; host or cells: NIH-3T3
T1 sequence (P19328 1-453): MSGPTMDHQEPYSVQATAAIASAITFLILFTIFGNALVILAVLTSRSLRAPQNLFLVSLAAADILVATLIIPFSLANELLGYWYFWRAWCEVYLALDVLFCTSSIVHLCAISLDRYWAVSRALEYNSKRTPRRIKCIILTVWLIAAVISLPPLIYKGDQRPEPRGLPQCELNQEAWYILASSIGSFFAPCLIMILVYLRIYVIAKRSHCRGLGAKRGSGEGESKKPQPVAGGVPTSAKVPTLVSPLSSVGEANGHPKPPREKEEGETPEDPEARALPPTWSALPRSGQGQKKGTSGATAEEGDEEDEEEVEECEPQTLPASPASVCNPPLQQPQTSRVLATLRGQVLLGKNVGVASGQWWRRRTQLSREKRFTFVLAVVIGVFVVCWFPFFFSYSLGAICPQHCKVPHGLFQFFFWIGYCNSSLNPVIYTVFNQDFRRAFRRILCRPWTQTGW
Description: Agonist and antagonist activity, including selectivity and specificity, can be characterized using any of a variety of routine assays, including, without limitation, Receptor Selection and Amplification Technology (RSAT) assays (Messier et al., Pharmacol. Toxicol. 76:308-11 (1995); Conklin et al., Nature 363:274-6 (1993)); cyclic AMP assays (Shimizu et al., J. Neurochem. 16:1609-1619 (1969)); and cytosensor microphysiometry assays (Neve et al., J. Biol. Chem. 267:25748-25753 (1992)). Such assays generally are performed using cells that naturally express only a single α-adrenergic receptor subtype, or using transfected cells expressing a single recombinant α-adrenergic receptor subtype. The adrenergic receptor can be a human receptor or homolog thereof having a similar pharmacology. As disclosed herein, RSAT assays were performed using cells transiently transfected with human α-2A (c10 gene); rat α-2B (RNG gene); human α-2C (c4 gene); bovine α-1A; hamster α-1B; and rat α-1D.
The RSAT assay measures receptor-mediated loss of contact inhibition resulting in selective proliferation of receptor-containing cells in a mixed population of confluent cells. The increase in cell number is assessed with an appropriate detectable marker gene such as β-galactosidase, if desired, in a high throughput or ultra high throughput assay format. Receptors that activate the G protein, Gq, elicit the proliferative response. α-adrenergic receptors, which normally couple to Gi, activate the RSAT response when coexpressed with a hybrid Gq protein containing a Gi receptor recognition domain, designated Gq/i5.
As an example, an RSAT assay can be performed essentially as follows. NIH-3T3 cells are plated at a density of 2×10^6 cells in 15 cm dishes and maintained in Dulbecco's modified Eagle's medium supplemented with 10% calf serum. One day later, cells are cotransfected by calcium phosphate precipitation with mammalian expression plasmids encoding p-SV-β-galactosidase (5-10 μg), receptor (1-2 μg) and G protein (1-2 μg). Carrier DNA, for example 40 μg salmon sperm DNA, also can be included to increase transfection efficiency. Fresh media is added on the following day; one to two days later, cells are harvested and frozen in 50 assay aliquots. Transfected cells are thawed, and 100 μl of cells added to 100 μl aliquots of compound to be tested, with various concentrations assayed in triplicate, for example, in 96-well plates. Incubation continues for 72 to 96 hours at 37°. After washing with phosphate-buffered saline, β-galactosidase activity is determined by adding 200 μl of chromogenic substrate (3.5 mM O-nitrophenyl-β-D-galactopyranoside/0.5% NP-40 in phosphate buffered saline), incubating overnight at 30°, and measuring optical density at 420 nm. The absorbancy is a measure of enzyme activity, which depends on cell number and reflects receptor-mediated cell proliferation. The EC50 and maximal effect (efficacy) of each drug at each receptor is determined.

α-2A = biological target: T2, α-2A (Homo sapiens, UniProt P08913); test: Ki at α-2A; format: binding
T2 sequence (P08913 1-465): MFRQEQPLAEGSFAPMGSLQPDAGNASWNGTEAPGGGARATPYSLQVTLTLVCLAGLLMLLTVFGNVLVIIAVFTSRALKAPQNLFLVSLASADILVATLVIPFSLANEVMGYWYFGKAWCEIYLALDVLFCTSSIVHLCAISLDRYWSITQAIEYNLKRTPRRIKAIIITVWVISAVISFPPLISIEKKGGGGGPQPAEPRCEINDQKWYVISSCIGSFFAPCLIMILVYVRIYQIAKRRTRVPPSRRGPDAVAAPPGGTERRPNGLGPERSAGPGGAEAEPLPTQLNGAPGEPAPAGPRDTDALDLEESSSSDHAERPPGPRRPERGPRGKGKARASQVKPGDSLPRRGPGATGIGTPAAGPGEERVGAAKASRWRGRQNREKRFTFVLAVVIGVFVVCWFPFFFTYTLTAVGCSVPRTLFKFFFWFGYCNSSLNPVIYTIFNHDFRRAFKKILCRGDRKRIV

[4] = subcutaneous osmotic minipump 0.1 mg/kg/hour, seven days

| plasma drug level, day 10 ([2]; day 10 following pump insertion) | plasma drug level, day 14 ([2]; day 14 following pump insertion) | Compound | analgesic effect in α-2B knockout mice [1] | allodynia during follow-up testing (Chung model rats; after oral 0.3 mg/kg three times a day for three days) | allodynia on the morning of day 4 (Chung model rats; oral 0.3 mg/kg three times a day for three days) | allodynia prior to the first dose of the morning, days 2 and 3 (Chung model rats; oral 0.3 mg/kg three times a day for three days, about 14 hours after the last dose) | reversal of allodynia (Chung model rats; oral gavage, three doses of 0.3 mg/kg per day for three consecutive days) | allodynia alleviated during the period of drug treatment (Chung model rats; [4]) | persistence of analgesic effects after treatment (Chung model rats; [4]) | cold allodynia (Bennett model rats) | EMG response, non-sensitized control rats ([3]; 100 ug/kg/hr subcutaneous minipump, 7 days) | pain (EMG intensity) in sensitized rats after treatment ([3]; 100 ug/kg/hr subcutaneous minipump, 7 days, CRD 20-80 mm Hg) | increased EMG response in sensitized rats ([3]; 100 ug/kg/hr subcutaneous minipump, 7 days, during and following treatment) | return of colorectal allodynia and hyperalgesia ([3]; 4 weeks following cessation of drug treatment) | efficacy at α-2B relative to brimonidine (rat α-2B (RNG gene)) | Ki (α-2A) [nM] |
| --- | --- | --- | --- | --- | --- | --- | --- | --- | --- | --- | --- | --- | --- | --- | --- | --- |
| minimal drug levels were detected | no drug remained in the plasma | OCCNC(=S)NCc1cccc(Cl)c1F [Compound 8] | failed to show analgesic activity | allodynia did not increase during a more than three week period of follow-up testing | allodynia was dramatically reduced | complete tactile allodynia | 70-80% | 90-100% | continued for over a month after treatment was concluded | completely alleviated | did not change significantly from pre-treatment levels | 0 to 1.5 | completely alleviated | did not return during the time period tested |  |  |
|  |  | c1nc(CC2CCc3sccc3C2)c[nH]1 (stereo not shown) [Compound 13] |  |  |  |  |  |  |  |  |  |  |  |  | about 40% | ~0.08 |
